In patent US9487515B2, “Compounds modulating c-fms and/or c-kit activity and uses therefor” (Plexxikon Inc., priority 2006, dated 2016) one finds IC50 data, which are given here for 37 molecules.

In the experiment the target is c-kit (Homo sapiens, UniProt P10721). The experiment can be described thus: c-kit assays of Examples 40 and 41 (AlphaScreen kinase assays at 10 and 100 μM ATP, 33P-ATP filter assay, M-07e SCF-stimulated proliferation and phosphorylation). (In Alpha technology, singlet oxygen from a donor bead excites a nearby acceptor bead.)
c-kit, sequence (P10721 with tags, fused parts or gaps): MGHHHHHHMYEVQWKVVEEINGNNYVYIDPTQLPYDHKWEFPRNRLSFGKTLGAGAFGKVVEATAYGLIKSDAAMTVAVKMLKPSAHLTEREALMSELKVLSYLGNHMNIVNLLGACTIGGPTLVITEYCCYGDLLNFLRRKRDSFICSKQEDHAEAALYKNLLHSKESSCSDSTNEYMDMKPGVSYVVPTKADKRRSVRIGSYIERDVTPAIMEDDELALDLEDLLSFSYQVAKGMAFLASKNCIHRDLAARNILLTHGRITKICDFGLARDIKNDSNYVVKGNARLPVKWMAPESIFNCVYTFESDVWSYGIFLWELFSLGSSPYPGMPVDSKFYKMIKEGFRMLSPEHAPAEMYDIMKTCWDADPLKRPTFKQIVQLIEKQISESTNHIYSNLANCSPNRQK
For orientation: IC50 means the concentration that inhibits the measured activity by half. In turn, `COc1ncccc1CNc1ccc(Cc2c[nH]c3ncccc23)cn1` [P-0215, (2-Methoxy-pyridin-3-ylmethyl)-[5-(1H-pyrrolo[2,3-b]pyridin-3-ylmethyl)-pyridin-2-yl]-amine] had an IC50 of less than 1 µM. Next, `Clc1ccccc1CNc1ccc(Cc2c[nH]c3ncccc23)cn1` [P-0216, (2-Chloro-benzyl)-[5-(1H-pyrrolo[2,3-b]pyridin-3-ylmethyl)-pyridin-2-yl]-amine]: less than 1 µM; `Cc1ccccc1CNc1ccc(Cc2c[nH]c3ncccc23)cn1` [P-0217, (2-Methyl-benzyl)-[5-(1H-pyrrolo[2,3-b]pyridin-3-ylmethyl)-pyridin-2-yl]-amine]: less than 1 µM; `Cn1c(CNc2ccc(Cc3c[nH]c4ncccc34)cn2)nc2ccccc21` [P-0218, (1-Methyl-1H-benzoimidazol-2-ylmethyl)-[5-(1H-pyrrolo[2,3-b]pyridin-3-ylmethyl)-pyridin-2-yl]-amine]: less than 1 µM. Next, `COc1ccc(CNc2ccc(Cc3c[nH]c4ncccc34)cn2)cn1` [P-0219, (6-Methoxy-pyridin-3-ylmethyl)-[5-(1H-pyrrolo[2,3-b]pyridin-3-ylmethyl)-pyridin-2-yl]-amine]: less than 1 µM; `Fc1ccc(CNc2ccc(Cc3c[nH]c4ncccc34)cn2)c(Cl)c1` [P-0221, (2-Chloro-4-fluoro-benzyl)-[5-(1H-pyrrolo[2,3-b]pyridin-3-ylmethyl)-pyridin-2-yl]-amine]: less than 1 µM; `COc1cncc(CNc2ccc(Cc3c[nH]c4ncccc34)cn2)c1` [P-0222, (5-Methoxy-pyridin-3-ylmethyl)-[5-(1H-pyrrolo[2,3-b]pyridin-3-ylmethyl)-pyridin-2-yl]-amine]: less than 1 µM. `COc1cccc(CNc2ccc(Cc3c[nH]c4ncccc34)cn2)n1` [P-0224, (6-Methoxy-pyridin-2-ylmethyl)-[5-(1H-pyrrolo[2,3-b]pyridin-3-ylmethyl)-pyridin-2-yl]-amine] registered an IC50 of less than 1 µM. In turn, `Fc1ccc(CNc2ccc(Cc3c[nH]c4ncccc34)cn2)c(C(F)(F)F)c1` [P-0225, (4-Fluoro-2-trifluoromethyl-benzyl)-[5-(1H-pyrrolo[2,3-b]pyridin-3-ylmethyl)-pyridin-2-yl]-amine] registered a 50% inhibitory concentration (IC50) of less than 1 µM. `FC(F)(F)c1ccccc1CNc1ccc(Cc2c[nH]c3ncccc23)cn1` [P-0226, [5-(1H-Pyrrolo[2,3-b]pyridin-3-ylmethyl)-pyridin-2-yl]-(2-trifluoromethyl-benzyl)-amine] gave an IC50 of less than 1 µM. On to `c1cc(CNc2ccc(Cc3c[nH]c4ncccc34)cn2)nc(N2CCOCC2)c1` [P-0228, (6-Morpholin-4-yl-pyridin-2-ylmethyl)-[5-(1H-pyrrolo[2,3-b]pyridin-3-ylmethyl)-pyridin-2-yl]-amine], for which the IC50 was less than 1 µM. Next, `Cc1cnc2[nH]cc(Cc3ccc(NCc4ccc(C(F)(F)F)nc4)nc3Cl)c2c1` [P-0234, [6-Chloro-5-(5-methyl-1H-pyrrolo[2,3-b]pyridin-3-ylmethyl)-pyridin-2-yl]-(6-trifluoromethyl-pyridin-3-ylmethyl)-amine]: less than 1 µM; `Clc1cnc2[nH]cc(Cc3sc(NCc4ccncc4)nc3Cl)c2c1` [P-0237, [4-Chloro-5-(5-chloro-1H-pyrrolo[2,3-b]pyridin-3-ylmethyl)-thiazol-2-yl]-pyridin-4-ylmethyl-amine]: less than 1 µM. In turn, `CCn1cc(CNc2nc(Cl)c(Cc3c[nH]c4ncc(Cl)cc34)s2)cn1` [P-0239, [4-Chloro-5-(5-chloro-1H-pyrrolo[2,3-b]pyridin-3-ylmethyl)-thiazol-2-yl]-(1-ethyl-1H-pyrazol-4-ylmethyl)-amine] displayed an IC50 of less than 1 µM. Next, `FC(F)(F)c1ccc(CNc2nc(Cl)c(Cc3c[nH]c4ncc(Cl)cc34)s2)cn1` [P-0242, [4-Chloro-5-(5-chloro-1H-pyrrolo[2,3-b]pyridin-3-ylmethyl)-thiazol-2-yl]-(6-trifluoromethyl-pyridin-3-ylmethyl)-amine]: less than 1 µM. Take `Fc1cccc(Cl)c1CNc1nc(Cl)c(Cc2c[nH]c3ncc(Cl)cc23)s1` [P-0243, [4-Chloro-5-(5-chloro-1H-pyrrolo[2,3-b]pyridin-3-ylmethyl)-thiazol-2-yl]-(2-chloro-6-fluoro-benzyl)-amine]: the IC50 was less than 1 µM. In turn, `Clc1cnc2[nH]cc(Cc3sc(NCCc4ccccc4)nc3Cl)c2c1` [P-0244, [4-Chloro-5-(5-chloro-1H-pyrrolo[2,3-b]pyridin-3-ylmethyl)-thiazol-2-yl]-phenethyl-amine] came in with an IC50 of less than 1 µM. `Fc1ccc(CNc2nc(Cl)c(Cc3c[nH]c4ncc(Cl)cc34)s2)c(F)c1` [P-0245, [4-Chloro-5-(5-chloro-1H-pyrrolo[2,3-b]pyridin-3-ylmethyl)-thiazol-2-yl]-(2,4-difluoro-benzyl)-amine] showed an IC50 of less than 1 µM. Consider `Fc1ccccc1CNc1nc(Cl)c(Cc2c[nH]c3ncc(Cl)cc23)s1` [P-0246, [4-Chloro-5-(5-chloro-1H-pyrrolo[2,3-b]pyridin-3-ylmethyl)-thiazol-2-yl]-(2-fluoro-benzyl)-amine], for which the IC50 is less than 1 µM. Molecule `Clc1cnc2[nH]cc(Cc3sc(NCc4cccc(N5CCOCC5)n4)nc3Cl)c2c1` [P-0252, [4-Chloro-5-(5-chloro-1H-pyrrolo[2,3-b]pyridin-3-ylmethyl)-thiazol-2-yl]-(6-morpholin-4-yl-pyridin-2-ylmethyl)-amine] showed an IC50 of less than 1 µM. As for `Clc1cnc2[nH]cc(Cc3sc(NCc4c(Cl)cncc4Cl)nc3Cl)c2c1` [P-0253, [4-Chloro-5-(5-chloro-1H-pyrrolo[2,3-b]pyridin-3-ylmethyl)-thiazol-2-yl]-(3,5-dichloro-pyridin-4-ylmethyl)-amine], the IC50 was less than 1 µM.

Consider `N#Cc1cnc2[nH]cc(Cc3ccc(NCc4ccc(Cl)cc4)nc3)c2c1` [P-0257, 3-[6-(4-Chloro-benzylamino)-pyridin-3-ylmethyl]-1H-pyrrolo[2,3-b]pyridine-5-carbonitrile], for which the IC50 was less than 1 µM. Consider `CCCS(=O)(=O)Nc1ccc(F)c(CNc2ccc(Cc3c[nH]c4ncccc34)cn2)c1F` [P-0258, propane-1-sulfonic acid (2,4-difluoro-3-[5-(1H-pyrrolo[2,3-b]pyridin-3-ylmethyl)-pyridin-2-ylamino]-methyl-phenyl)-amide], for which the IC50 is less than 1 µM.

Molecule `CCCS(=O)(=O)Nc1ccc(F)c(CNc2ccc(Cc3c[nH]c4ncc(Cl)cc34)cn2)c1F` [P-0259, Propane-1-sulfonic acid (3-{[5-(5-chloro-1H-pyrrolo[2,3-b]pyridin-3-ylmethyl)-pyridin-2-ylamino]-methyl}-2,4-difluoro-phenyl)-amide] returned an IC50 of less than 1 µM. Next, `Clc1ccc(CNc2ncc(Cc3c[nH]c4ncc(Cl)cc34)cn2)cc1` [P-0260, (4-Chloro-benzyl)-[5-(5-chloro-1H-pyrrolo[2,3-b]pyridin-3-ylmethyl)-pyrimidin-2-yl]-amine]: less than 1 µM; `FC(F)(F)c1ccccc1CNc1ncc(Cc2c[nH]c3ncc(Cl)cc23)cn1` [P-0262, [5-(5-Chloro-1H-pyrrolo[2,3-b]pyridin-3-ylmethyl)-pyrimidin-2-yl]-(2-trifluoromethyl-benzyl)-amine]: less than 1 µM; `Clc1cnc2[nH]cc(Cc3cnc(NCc4ccccc4Cl)nc3)c2c1` [P-0263, (2-Chloro-benzyl)-[5-(5-chloro-1H-pyrrolo[2,3-b]pyridin-3-ylmethyl)-pyrimidin-2-yl]-amine]: less than 1 µM. Turning to `Fc1ccccc1CNc1ncc(Cc2c[nH]c3ncc(Cl)cc23)cn1` [P-0264, [5-(5-Chloro-1H-pyrrolo[2,3-b]pyridin-3-ylmethyl)-pyrimidin-2-yl]-(2-fluoro-benzyl)-amine], the IC50 was less than 1 µM.

With `Fc1ccc(CNc2ncc(Cc3c[nH]c4ncc(Cl)cc34)cn2)c(F)c1` [P-0265, [5-(5-Chloro-1H-pyrrolo[2,3-b]pyridin-3-ylmethyl)-pyrimidin-2-yl]-(2,4-difluoro-benzyl)-amine], the IC50 was less than 1 µM. Turning to `FC(F)(F)c1ccc(CNc2ncc(Cc3c[nH]c4ncc(Cl)cc34)cn2)cc1` [P-0266, [5-(5-Chloro-1H-pyrrolo[2,3-b]pyridin-3-ylmethyl)-pyrimidin-2-yl]-(4-trifluoromethyl-benzyl)-amine], the IC50 is less than 1 µM.

As for `Fc1ccc(F)c(CNc2ncc(Cc3c[nH]c4ncc(Cl)cc34)cn2)c1` [P-0267, [5-(5-Chloro-1H-pyrrolo[2,3-b]pyridin-3-ylmethyl)-pyrimidin-2-yl]-(2,5-difluoro-benzyl)-amine], the IC50 is less than 1 µM. Regarding `FC(F)(F)c1cccc(CNc2ncc(Cc3c[nH]c4ncc(Cl)cc34)cn2)c1` [P-0268, [5-(5-Chloro-1H-pyrrolo[2,3-b]pyridin-3-ylmethyl)-pyrimidin-2-yl]-(3-trifluoromethyl-benzyl)-amine], the IC50 is less than 1 µM. Next, `N#Cc1cnc2[nH]cc(Cc3ccc(NCc4ccc(C(F)(F)F)cc4)nc3)c2c1` [P-0269, 3-[6-(4-Trifluoromethyl-benzylamino)-pyridin-3-ylmethyl]-1H-pyrrolo[2,3-b]pyridine-5-carbonitrile]: less than 1 µM; `Fc1ccccc1CNc1ccc(Cc2c[nH]c3ncc(Cl)cc23)cn1` [P-0270, [5-(5-Chloro-1H-pyrrolo[2,3-b]pyridin-3-ylmethyl)-pyridin-2-yl]-(2-fluoro-benzyl)-amine]: less than 1 µM; `N#Cc1cnc2[nH]cc(Cc3ccc(NCc4ccccc4F)nc3)c2c1` [P-0271, 3-[6-(2-Fluoro-benzylamino)-pyridin-3-ylmethyl]-1H-pyrrolo[2,3-b]pyridine-5-carbonitrile]: less than 1 µM.

As for `Cc1cnc2[nH]cc(Cc3ccc(NCc4ccccc4F)nc3)c2c1` [P-0272, (2-Fluoro-benzyl)-[5-(5-methyl-1H-pyrrolo[2,3-b]pyridin-3-ylmethyl)-pyridin-2-yl]-amine], the IC50 is less than 1 µM.

`N#Cc1cnc2[nH]cc(Cc3ccc(NCc4ccc(C(F)(F)F)nc4)nc3)c2c1` [P-0273, 3-{6-[(6-Trifluoromethyl-pyridin-3-ylmethyl)-amino]-pyridin-3-ylmethyl}-1H-pyrrolo[2,3-b]pyridine-5-carbonitrile]: the IC50 is less than 1 µM.
